Laboratory results reported in PMC3681751, “Identification of a Novel Antimicrobial Peptide from Human Hepatitis B Virus Core Protein Arginine-Rich Domain (ARD)” (PLoS Pathogens, 2013).
Like-named read-outs stand apart in the source and are kept apart here. Residues, ends and D or L forms follow the SMILES beside them.

Legend:
[1] = system: tested bacteria and fungi; assay type: cell-based; conditions: summary of Table 1
Procedure: (§1) The antimicrobial activities of HBc ARD peptides were tested using a number of bacterial strains from ATCC, including Pseudomonas aeruginosa Migula strain (ATCC 27853, ampicillin-resistant), Pseudomonas aeruginosa Migula strain (ATCC 9027, ampicillin-resistant), Klebsiella pneumoniae strain (ATCC 17593), Escherichia coli strain (ATCC 25922), Staphylococcus aureus subsp. strain (ATCC 25923, methicillin-resistant), Staphylococcus aureus subsp. strain (ATCC 29213, methicillin-resistant), Staphylococcus aureus subsp. strain (ATCC 19636, methicillinresistant), and Candida albicans strain (ATCC 10231).
(§2) All peptides were purchased from Yao-Hong Biotechnology Inc. (Taipei, Taiwan). Vendors provided data of peptide characterizations, including HPLC and Mass (data not shown). Antimicrobial activity was determined as described with some modifications as detailed below. Bacteria were grown overnight in Mueller–Hinton broth (Difco) at 37°C, and during the mid-logarithmic phase, bacteria were diluted to 10^6 CFU (colony formation unit)/ml in phosphate buffer (10 mM sodium phosphate and 50 mM sodium chloride, pH 7.2). Peptides were serially diluted in the same buffer. Fifty microliter (µl) of bacteria was mixed with fifty µl of peptides at varying concentrations followed by incubation at 37°C for 3 hours without shaking. At the end of incubation, bacteria were placed on Mueller-Hinton broth agar plates, and allowed growth at 37°C overnight for measurement of minimal bactericidal concentration (MBC). […] All peptides were tested in triplicate.

E. coli (ATCC 25922) = assay type: cell-based, Escherichia coli
Procedure: as §1, §2

[2] = system: K. pneumonia (ATCC 13884); assay type: cell-based, Klebsiella pneumoniae
[3] = system: P. aeruginosa (ATCC 9027); assay type: cell-based, Pseudomonas aeruginosa; conditions: for MBC against P. aeruginosa: summary over the P. aeruginosa strains of Table 1 (ATCC 9027, ATCC 27853)
Procedure: as §1, §2

[4] = system: P. aeruginosa (ATCC 27853); assay type: cell-based, Pseudomonas aeruginosa
Procedure: as §1, §2

S. aureus (ATCC 29213) = assay type: cell-based, Staphylococcus aureus
Procedure: as §1, §2

S. aureus (ATCC 25923) = assay type: cell-based, Staphylococcus aureus
Procedure: as §1, §2

S. aureus (ATCC 19636) = assay type: cell-based, Staphylococcus aureus
Procedure: as §1, §2

[5] = 3 h at 37°C in phosphate buffer pH 7.2, triplicate
[6] = ampicillin-resistant strain, 3 h at 37°C in phosphate buffer pH 7.2, triplicate
[7] = methicillin-resistant strain, 3 h at 37°C in phosphate buffer pH 7.2, triplicate

Molecule: HBc164-176: HBc ARD peptide ARD III–IV (RRRRSQSPRRRRS; UniProt P03147 164-176, looked up, fragment)
- Activity against all of the tested bacteria and fungi [1]: no activity

Molecule: C[C@@H](O)[C@H](NC(=O)[C@H](CCCNC(=N)N)NC(=O)[C@H](CCCNC(=N)N)NC(=O)[C@H](CCCNC(=N)N)NC(=O)[C@@H]1CCCN1C(=O)[C@@H](N)CO)C(=O)N1CCC[C@H]1C(=O)N[C@@H](CO)C(=O)N1CCC[C@H]1C(=O)N[C@@H](CCCNC(=N)N)C(=O)N[C@@H](CCCNC(=N)N)C(=O)N[C@@H](CCCNC(=N)N)C(=O)N[C@@H](CCCNC(=N)N)C(=O)N[C@@H](CO)C(=O)N[C@@H](CCC(N)=O)C(=O)N[C@@H](CO)C(=O)N1CCC[C@H]1C(=O)N[C@@H](CCCNC(=N)N)C(=O)N[C@@H](CCCNC(=N)N)C(=O)N[C@@H](CCCNC(=N)N)C(=O)N[C@@H](CCCNC(=N)N)C(=O)O [HBc155-175] (H-SPRRRTPSPRRRRSQSPRRRR-OH; N-terminus and C-terminus assumed)
- Antimicrobial activity, MBC (E. coli (ATCC 25922); [5]): > 86.46 mg/L
- Antimicrobial activity, MBC [2, 5]: > 86.46 mg/L
- Antimicrobial activity, MBC ([2]; ATCC 13884, 3 h, pH 7.2): > 32 µM
- Antimicrobial activity, MBC ([3]; ATCC 9027, 3 h, pH 7.2): 2 µM
- Antimicrobial activity, MBC [3, 6]: 5.4 mg/L
- MBC against P. aeruginosa [3]: strong activity
- Antimicrobial activity, MBC ([4]; ATCC 27853, 3 h, pH 7.2): 16 µM
- Antimicrobial activity, MBC [4, 6]: 43.23 mg/L

Molecule: CC(C)[C@H](NC(=O)[C@@H](NC(=O)[C@@H](N)[C@@H](C)O)C(C)C)C(=O)N[C@@H](CCCNC(=N)N)C(=O)N[C@@H](CCCNC(=N)N)C(=O)N[C@@H](CCCNC(=N)N)C(=O)NCC(=O)N[C@@H](CCCNC(=N)N)C(=O)N[C@@H](CO)C(=O)N1CCC[C@H]1C(=O)N[C@@H](CCCNC(=N)N)C(=O)N[C@@H](CCCNC(=N)N)C(=O)N[C@@H](CCCNC(=N)N)C(=O)N[C@H](C(=O)N1CCC[C@H]1C(=O)N[C@@H](CO)C(=O)N1CCC[C@H]1C(=O)N[C@@H](CCCNC(=N)N)C(=O)N[C@@H](CCCNC(=N)N)C(=O)N[C@@H](CCCNC(=N)N)C(=O)N[C@@H](CCCNC(=N)N)C(=O)N[C@@H](CO)C(=O)N[C@@H](CCC(N)=O)C(=O)N[C@@H](CO)C(=O)N1CCC[C@H]1C(=O)N[C@@H](CCCNC(=N)N)C(=O)N[C@@H](CCCNC(=N)N)C(=O)N[C@@H](CCCNC(=N)N)C(=O)N[C@@H](CCCNC(=N)N)C(=O)O)[C@@H](C)O [HBc147-175] (H-TVVRRRGRSPRRRTPSPRRRRSQSPRRRR-OH; N-terminus and C-terminus assumed)
- Antimicrobial activity, MBC (E. coli (ATCC 25922); [5]): 3.68 mg/L
- Antimicrobial activity, MBC (E. coli (ATCC 25922); ATCC 25922, 3 h, pH 7.2): 1 µM
- Antimicrobial activity, MBC (S. aureus (ATCC 29213); ATCC 29213, 3 h, pH 7.2): > 32 µM
- Antimicrobial activity, MBC (S. aureus (ATCC 29213); [7]): > 117.86 mg/L
- Antimicrobial activity, MBC (S. aureus (ATCC 25923); ATCC 25923, 3 h, pH 7.2): > 32 µM
- Antimicrobial activity, MBC (S. aureus (ATCC 25923); [7]): > 117.86 mg/L
- Antimicrobial activity, MBC (S. aureus (ATCC 19636); ATCC 19636, 3 h, pH 7.2): > 32 µM
- Antimicrobial activity, MBC (S. aureus (ATCC 19636); [7]): > 117.86 mg/L
- MBC against S. aureus (S. aureus (ATCC 19636); text summary over the S. aureus strains of Table 1 (ATCC 19636, 25923, 29213)): lost the activity
- Antimicrobial activity, MBC [2, 5]: 3.68 mg/L
- Antimicrobial activity, MBC ([2]; ATCC 13884, 3 h, pH 7.2): 1 µM
- Antimicrobial activity, MBC ([3]; ATCC 9027, 3 h, pH 7.2): 0.5 µM
- Antimicrobial activity, MBC [3, 6]: 1.84 mg/L
- Antimicrobial activity, MBC ([4]; ATCC 27853, 3 h, pH 7.2): 1 µM
- Antimicrobial activity, MBC [4, 6]: 3.68 mg/L

Molecule: C[C@@H](O)[C@H](NC(=O)[C@H](CCCNC(=N)N)NC(=O)[C@H](CCCNC(=N)N)NC(=O)[C@@H](N)CCCNC(=N)N)C(=O)N1CCC[C@H]1C(=O)N[C@@H](CO)C(=O)N1CCC[C@H]1C(=O)N[C@@H](CCCNC(=N)N)C(=O)N[C@@H](CCCNC(=N)N)C(=O)N[C@@H](CCCNC(=N)N)C(=O)N[C@@H](CCCNC(=N)N)C(=O)N[C@@H](CO)C(=O)N[C@@H](CCC(N)=O)C(=O)N[C@@H](CO)C(=O)N1CCC[C@H]1C(=O)N[C@@H](CCCNC(=N)N)C(=O)N[C@@H](CCCNC(=N)N)C(=O)N[C@@H](CCCNC(=N)N)C(=O)N[C@@H](CCCNC(=N)N)C(=O)O [HBc157-175] (H-RRRTPSPRRRRSQSPRRRR-OH; N-terminus and C-terminus assumed)
- Antimicrobial activity, MBC (E. coli (ATCC 25922); [5]): > 80.58 mg/L
- Antimicrobial activity, MBC [2, 5]: > 80.58 mg/L
- Antimicrobial activity, MBC ([2]; ATCC 13884, 3 h, pH 7.2): > 32 µM
- Antimicrobial activity, MBC ([3]; ATCC 9027, 3 h, pH 7.2): 2 µM
- MBC against P. aeruginosa [3]: strong activity
- Antimicrobial activity, MBC ([4]; ATCC 27853, 3 h, pH 7.2): > 32 µM
- Antimicrobial activity, MBC [4, 6]: > 80.58 mg/L

Molecule: HBc162-175: HBc ARD peptide ARD III–IV (SPRRRRSQSPRRRR; UniProt P03147 162-175, looked up, fragment)
- Activity against all of the tested bacteria and fungi [1]: no activity

Molecule: HBc147-159: HBc ARD peptide ARD I–II (TVVRRRGRSPRRR; UniProt P03147 147-159, looked up, fragment)
- Activity against all of the tested bacteria and fungi [1]: no activity

Molecule: C[C@@H](O)[C@H](NC(=O)[C@H](CCCNC(=N)N)NC(=O)[C@H](CCCNC(=N)N)NC(=O)[C@H](CCCNC(=N)N)NC(=O)[C@@H]1CCCN1C(=O)[C@H](CO)NC(=O)[C@H](CCCNC(=N)N)NC(=O)CN)C(=O)N1CCC[C@H]1C(=O)N[C@@H](CO)C(=O)N1CCC[C@H]1C(=O)N[C@@H](CCCNC(=N)N)C(=O)N[C@@H](CCCNC(=N)N)C(=O)N[C@@H](CCCNC(=N)N)C(=O)N[C@@H](CCCNC(=N)N)C(=O)N[C@@H](CO)C(=O)N[C@@H](CCC(N)=O)C(=O)N[C@@H](CO)C(=O)N1CCC[C@H]1C(=O)N[C@@H](CCCNC(=N)N)C(=O)N[C@@H](CCCNC(=N)N)C(=O)N[C@@H](CCCNC(=N)N)C(=O)N[C@@H](CCCNC(=N)N)C(=O)O [HBc153-175] (H-GRSPRRRTPSPRRRRSQSPRRRR-OH; N-terminus and C-terminus assumed)
- Antimicrobial activity, MBC (E. coli (ATCC 25922); [5]): 46.64 mg/L
- Antimicrobial activity, MBC [2, 5]: 93.28 mg/L
- Antimicrobial activity, MBC ([2]; ATCC 13884, 3 h, pH 7.2): > 32 µM
- Antimicrobial activity, MBC ([3]; ATCC 9027, 3 h, pH 7.2): 2 µM
- Antimicrobial activity, MBC [3, 6]: 5.8 mg/L
- MBC against P. aeruginosa [3]: strong activity
- Antimicrobial activity, MBC ([4]; ATCC 27853, 3 h, pH 7.2): 2 µM
- Antimicrobial activity, MBC [4, 6]: 5.8 mg/L

Molecule: CC(C)[C@H](NC(=O)[C@@H](NC(=O)[C@@H](N)[C@@H](C)O)C(C)C)C(=O)N[C@@H](CCCNC(=N)N)C(=O)N[C@@H](CCCNC(=N)N)C(=O)N[C@@H](CCCNC(=N)N)C(=O)NCC(=O)N[C@@H](CCCNC(=N)N)C(=O)N[C@@H](CO)C(=O)N1CCC[C@H]1C(=O)N[C@@H](CCCNC(=N)N)C(=O)N[C@@H](CCCNC(=N)N)C(=O)N[C@@H](CCCNC(=N)N)C(=O)N[C@H](C(=O)N1CCC[C@H]1C(=O)N[C@@H](CO)C(=O)N1CCC[C@H]1C(=O)N[C@@H](CCCNC(=N)N)C(=O)N[C@@H](CCCNC(=N)N)C(=O)N[C@@H](CCCNC(=N)N)C(=O)N[C@@H](CCCNC(=N)N)C(=O)O)[C@@H](C)O [HBc147-167] (H-TVVRRRGRSPRRRTPSPRRRR-OH; N-terminus and C-terminus assumed)
- Antimicrobial activity, MBC (E. coli (ATCC 25922); [5]): > 85 mg/L
- Antimicrobial activity, MBC [2, 5]: 21.3 mg/L
- Antimicrobial activity, MBC ([3]; ATCC 9027, 3 h, pH 7.2): > 32 µM
- Antimicrobial activity, MBC [3, 6]: > 85 mg/L
- Antimicrobial activity, MBC ([4]; ATCC 27853, 3 h, pH 7.2): > 32 µM
- Antimicrobial activity, MBC [4, 6]: > 85 mg/L

Molecule: C[C@@H](O)[C@H](NC(=O)[C@H](CCCNC(=N)N)NC(=O)[C@H](CCCNC(=N)N)NC(=O)[C@@H](N)CCCNC(=N)N)C(=O)N1CCC[C@H]1C(=O)N[C@@H](CO)C(=O)N1CCC[C@H]1C(=O)N[C@@H](CCCNC(=N)N)C(=O)N[C@@H](CCCNC(=N)N)C(=O)N[C@@H](CCCNC(=N)N)C(=O)N[C@@H](CCCNC(=N)N)C(=O)N[C@@H](CO)C(=O)N[C@@H](CCC(N)=O)C(=O)N[C@@H](CO)C(=O)N1CCC[C@H]1C(=O)N[C@@H](CCCNC(=N)N)C(=O)N[C@@H](CCCNC(=N)N)C(=O)N[C@@H](CCCNC(=N)N)C(=O)N[C@@H](CCCNC(=N)N)C(=O)N[C@@H](CO)C(=O)O [HBc157-176] (H-RRRTPSPRRRRSQSPRRRRS-OH; N-terminus and C-terminus assumed)
- Antimicrobial activity, MBC (E. coli (ATCC 25922); [5]): > 83.36 mg/L
- Antimicrobial activity, MBC [2, 5]: > 83.36 mg/L
- Antimicrobial activity, MBC ([2]; ATCC 13884, 3 h, pH 7.2): > 32 µM
- Antimicrobial activity, MBC ([3]; ATCC 9027, 3 h, pH 7.2): 2 µM
- Antimicrobial activity, MBC [3, 6]: 5.2 mg/L
- MBC against P. aeruginosa [3]: strong activity
- Antimicrobial activity, MBC ([4]; ATCC 27853, 3 h, pH 7.2): 2 µM
- Antimicrobial activity, MBC [4, 6]: 5.2 mg/L
